Here are results for 18 compounds from paper PMC7589021, “Setup and Validation of a Reliable Docking Protocol for the Development of Neuroprotective Agents by Targeting the Sigma-1 Receptor (S1R)” (International Journal of Molecular Sciences, 2020).

Data set [1] addresses T1, S1R (Cavia porcellus, UniProt Q60492). Description: S1R binding affinity of previously published compounds. The settings on record: ln of experimental Ki S1R (nM), Table 1. From the text: Table 1 Glide Gscores, calculated Ligand Efficiencies and experimentally determined Ki values of compounds 1–8 employed for the elaboration of the docking model. | column: ln(Ki)
For data set [2], the target named is T1, S1R. Description: S1R radioligand binding assay ([3H](+)-pentazocine, guinea pig brain cortex membranes). Also noted: The thawed membrane preparation of guinea pig brain cortex; from tissue; host or cells: guinea pig brain (cerebral) cortex membranes.
The target of data set [3] is T2, S2R (Rattus norvegicus, UniProt Q5U3Y7).
T2 construct: The assay was performed using 150 µg of rat liver homogenate; from tissue; host or cells: rat liver homogenate / membranes
T2 sequence (Q5U3Y7 1-176): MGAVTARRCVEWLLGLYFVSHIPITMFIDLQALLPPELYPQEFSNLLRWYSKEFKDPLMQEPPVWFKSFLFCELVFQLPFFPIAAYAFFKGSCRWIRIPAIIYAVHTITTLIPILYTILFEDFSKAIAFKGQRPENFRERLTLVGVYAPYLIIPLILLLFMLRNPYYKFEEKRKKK
Description: S2R radioligand binding assay ([3H]-DTG, rat liver membranes). To be noted: (+)-pentazocine to mask S1R.

The test system of data set [4] is HeLa cells. Briefly: Osmotic water permeability (AQP-mediated), stopped-flow light scattering. The format is cell-based. Here is the method: Prompted by these encouraging results, we decided to draw the antioxidant profile of compound 12, since it is well-known that oxidative stress is connected with insurgence and exacerbation of neurodegenerative diseases. In particular, the AQP-mediated antioxidant properties of RC-33 (i.e., 1-[3-(1,1′-biphen)-4-yl]butylpiperidine, our in-house developed selective S1R agonist) and 12 were evaluated in HeLa cells, following the procedures reported in our most recent studies. Briefly, osmotic water permeability was measured by a stopped-flow light scattering method and expressed as percentage of k relative. Compounds RC-33 and 12 were tested at 20 µM whereas curcumin was used as control of the goodness of the cellular assay, since its capability to affect the AQPs permeability was assessed in our previous work. The compounds were initially assessed on non-stressed HeLa cells to evaluate the capability of the compounds to affect the AQPs permeability in absence of an oxidant stimuli. […] Conversely, curcumin directly affect AQPs resulting in a significative permeability reduction (75% of k relative). RC-33, 12 and curcumin were further assessed under oxidative stress conditions induced by heating the cell cultures. […] Thus, to probe the entanglement between S1R, AQP permeability and antioxidant protection, compound 12 was assessed against stressed HeLa cells in presence of NE-100, a well-known and fully characterized S1R antagonist.
Osmotic water permeability was measured in HeLa cells suspension by the stopped-flow light scattering method as previously described.
The antioxidant effect of compound 12 on water permeability HeLa cells were divided into different groups: (1) Controls, cells incubated at room temperature (21 °C); (2) heat-stressed cells, cells subjected to heat-treatment by incubating them in a water thermostatic and shacking bath at 42 °C for 3 h; (3) heat-stressed cells pre-treated, cells heat-stressed in the presence of the compound 12 at 20 µM final concentration (dissolved in methanol). Moreover, to test the possible capacity of the molecules to affect the AQP gating in normal condition, HeLa cells were treated in the presence and in the absence of the compounds by incubating at 21 °C for 3 h.

In data set [5] the target is T3, GluN2 subunit of NMDA (GluN1a and GluN2B subunits) (Homo sapiens, UniProt Q05586+Q13224).
T3 construct: expressed in transfected cells; host or cells: L(tk-) cells, stably transfected
Briefly: GluN2 binding assay ([3H]-ifenprodil, membranes of transfected L(tk-) cells).

For data set [6], the target named is AChE (Electrophorus electricus, UniProt O42275). Briefly: Inhibition of AChE, modified Ellman's method. Type of data set: biochemical. Here is the method: To test the potential to inhibit AChE, a spectrophotometric procedure was adopted, based on the well-known Ellman’s method. Firstly, the target compound was tested at a concentration of 50 μM and a 72% of inhibition was observed.
AChE inhibitory activity of compound 12 was determined by the modified Ellman’s method. Briefly, a stock solution of tested compound (5.0 mM) was prepared in DMSO and diluted using 0.1 M KH2PO4/K2HPO4 buffer (pH 8.0) to afford a final concentration range between […]. Enzyme solutions were prepared by dissolving lyophilized powder in double-distilled water. […] The reaction was started by addition of […] of the 0.075 M substrate solution (acetylthiocholine iodide) and exactly 2 min after substrate addition, the absorption was measured at 25 °C at 412 nm. In enzyme-free assay systems the non-enzymatic hydrolysis of acetylthiocholine iodide was measured, and the results were employed as blank. […] Each experiment was performed in triplicate, and the mean ± standard deviation was calculated. Data from concentration-inhibition experiments of the inhibitors were calculated by nonlinear regression analysis, using the Excel program.
In general terms: Ellman's reagent forms a yellow product with free thiols.

The target of data set [7] is T1, S1R. Also noted: method as in PMID 30223122. To be noted: read-out: KiS1R; cited from earlier work.
In data set [8] the target is S2R. On the set-up: method as in PMID 30223122. To be noted: read-out: KiS2R; cited from earlier work.
The mark [9] stands for this setting: guinea pig cerebral cortex membranes, [3H]-(+)-pentazocine, read-out: Experimental Ki S1R (nM) ± SEM.
The mark [10] stands for this setting: ln of experimental Ki S1R (nM), read-out: Experimental Ki S1R (converted).
Where [11] appears, read: Experimental Ki S1R (nM) ± SEM, guinea pig cerebral cortex membranes, [3H]-(+)-pentazocine.
Setting [12] is: Experimental ln(Ki), ln of experimental Ki S1R (nM).
The mark [13] stands for this setting: heat-stressed HeLa cells (42 °C 3 h), pre-treated at 20 µM.
[14] abbreviates: non-stressed HeLa cells, 21 °C 3 h, 20 µM.

Structures are written as SMILES. Where a name gives a salt, the structure may show the parent alone. Read-outs that look alike come from different tables or passages of the source.

T1 sequence (Q60492 whole entry): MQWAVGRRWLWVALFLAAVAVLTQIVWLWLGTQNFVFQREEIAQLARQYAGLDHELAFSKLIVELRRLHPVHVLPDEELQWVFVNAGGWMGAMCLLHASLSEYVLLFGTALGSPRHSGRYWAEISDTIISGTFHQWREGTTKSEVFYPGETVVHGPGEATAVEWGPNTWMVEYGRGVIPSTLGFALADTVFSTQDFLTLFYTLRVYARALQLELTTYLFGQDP
Sequence of AChE (O42275 24-633): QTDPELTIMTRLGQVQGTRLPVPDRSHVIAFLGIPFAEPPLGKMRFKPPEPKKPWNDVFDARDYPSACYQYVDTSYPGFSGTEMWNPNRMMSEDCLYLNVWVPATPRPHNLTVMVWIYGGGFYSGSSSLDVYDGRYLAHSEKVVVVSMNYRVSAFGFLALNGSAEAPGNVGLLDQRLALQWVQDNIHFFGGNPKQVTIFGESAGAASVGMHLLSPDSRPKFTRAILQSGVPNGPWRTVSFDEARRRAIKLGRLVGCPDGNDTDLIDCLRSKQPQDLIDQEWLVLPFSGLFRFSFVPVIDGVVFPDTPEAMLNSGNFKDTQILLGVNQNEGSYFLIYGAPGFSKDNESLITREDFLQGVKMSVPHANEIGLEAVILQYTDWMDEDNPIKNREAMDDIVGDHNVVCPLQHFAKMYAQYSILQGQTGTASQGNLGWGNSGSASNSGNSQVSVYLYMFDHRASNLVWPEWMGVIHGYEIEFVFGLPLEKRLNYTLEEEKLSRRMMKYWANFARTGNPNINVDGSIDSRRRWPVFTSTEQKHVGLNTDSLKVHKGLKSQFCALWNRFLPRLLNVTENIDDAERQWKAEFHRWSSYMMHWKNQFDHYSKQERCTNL
T3 sequence (Q13224 27-1484, other chains not shown): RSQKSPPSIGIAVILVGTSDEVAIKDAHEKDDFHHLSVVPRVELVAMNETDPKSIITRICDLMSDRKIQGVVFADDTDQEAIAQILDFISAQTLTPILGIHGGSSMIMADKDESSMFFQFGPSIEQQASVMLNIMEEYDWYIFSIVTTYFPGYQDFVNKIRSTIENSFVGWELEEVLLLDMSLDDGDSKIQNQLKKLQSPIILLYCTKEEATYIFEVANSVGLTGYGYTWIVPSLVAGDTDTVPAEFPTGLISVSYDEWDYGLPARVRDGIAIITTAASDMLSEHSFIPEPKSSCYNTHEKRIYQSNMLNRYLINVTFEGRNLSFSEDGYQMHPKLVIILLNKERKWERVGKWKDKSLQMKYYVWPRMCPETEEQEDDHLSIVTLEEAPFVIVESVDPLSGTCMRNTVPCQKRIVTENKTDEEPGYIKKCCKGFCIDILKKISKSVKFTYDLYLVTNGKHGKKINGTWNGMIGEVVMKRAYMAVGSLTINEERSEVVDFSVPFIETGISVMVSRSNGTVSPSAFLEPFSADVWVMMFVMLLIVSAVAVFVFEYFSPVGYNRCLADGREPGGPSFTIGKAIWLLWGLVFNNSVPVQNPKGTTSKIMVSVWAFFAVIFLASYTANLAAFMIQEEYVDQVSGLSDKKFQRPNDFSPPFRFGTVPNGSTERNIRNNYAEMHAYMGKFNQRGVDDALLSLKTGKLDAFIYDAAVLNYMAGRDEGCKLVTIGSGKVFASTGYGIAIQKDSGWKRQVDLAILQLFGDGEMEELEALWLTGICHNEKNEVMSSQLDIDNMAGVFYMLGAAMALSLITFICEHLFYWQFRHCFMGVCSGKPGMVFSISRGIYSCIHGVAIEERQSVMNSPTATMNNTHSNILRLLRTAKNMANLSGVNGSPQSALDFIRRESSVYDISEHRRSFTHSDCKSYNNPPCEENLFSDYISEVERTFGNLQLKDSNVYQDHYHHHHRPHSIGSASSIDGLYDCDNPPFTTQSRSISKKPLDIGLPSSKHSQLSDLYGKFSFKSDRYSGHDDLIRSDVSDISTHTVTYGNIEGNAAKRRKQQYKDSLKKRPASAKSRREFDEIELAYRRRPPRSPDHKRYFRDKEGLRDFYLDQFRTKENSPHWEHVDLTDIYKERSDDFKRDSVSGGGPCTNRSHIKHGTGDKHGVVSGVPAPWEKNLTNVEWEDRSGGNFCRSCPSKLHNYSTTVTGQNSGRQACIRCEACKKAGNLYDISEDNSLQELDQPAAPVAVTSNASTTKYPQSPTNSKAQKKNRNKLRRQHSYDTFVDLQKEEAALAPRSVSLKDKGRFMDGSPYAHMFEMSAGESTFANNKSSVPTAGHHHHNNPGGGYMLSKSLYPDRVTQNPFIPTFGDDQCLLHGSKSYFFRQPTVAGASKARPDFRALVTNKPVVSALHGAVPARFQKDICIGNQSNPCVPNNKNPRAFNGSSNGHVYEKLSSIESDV

A word on the melting point: it is the temperature of the solid-liquid transition. In turn, `O=C(CN1CCCCC1)c1ccc(-c2ccccc2)cc1` (as salt: hydrochloride) [Compound 8, 1-(2-([1,1’-biphenyl]-4-yl)-2-oxoethyl)piperidin-1-ium hydrochloride] came in with a melting point of 236 to 238 °C.
Take `O=C(CN1CCCCC1)c1ccc(OCc2ccccc2)cc1` (as salt: hydrochloride) [Compound 9, 1-(2-(4-(benzyloxy)phenyl)-2-oxoethyl)piperidin-1-ium hydrochloride]: the melting point lay in the range of 86 to 88 °C.
Same read-out and setting: the result for `O=C(CCCN1CCCCC1)c1ccc(OCc2ccccc2)cc1` (as salt: hydrochloride) [Compound 13, 1-(4-(4-(benzyloxy)phenyl)-4-oxobutyl)piperidin-1-ium hydrochloride] reads 188 to 190 °C.
On to `O=C(CN1CCC(Cc2ccccc2)CC1)c1ccc2ccccc2c1` [Compound 1], for which the “ln(Ki)” value in data set [1] came out at 3.296.
On the same count and under the same terms, the same measure for `O=C(CCN1CCCCC1)c1ccc(-c2ccccc2)cc1` [Compound 2]: 2.708; for `O=C(CCN1CCCCC1)c1ccc2ccccc2c1` [Compound 3]: 0.788; for `O=C(CCN1CCOCC1)c1ccc(-c2ccccc2)cc1` [Compound 4]: 1.065.
For `O=C(CCN1CCOCC1)c1ccc2ccccc2c1` [Compound 5], in [1], the “ln(Ki)” value was 2.197.
In the case of `O=C(CN1CCC(Cc2ccccc2)CC1)c1ccc(-c2ccccc2)cc1` [Compound 6], the “ln(Ki)” value in data set [1] was determined as 5.829.
For the compound `O=C(CN1CCCCC1)c1ccc(-c2ccccc2)cc1` [Compound 8, 1-(2-([1,1’-biphenyl]-4-yl)-2-oxoethyl)piperidin-1-ium hydrochloride], the Ki is 132 ± 55 nM in data set [2] (setting [9]) and 132 nM in [2] (setting [10]).
`O=C(CN1CCCCC1)c1ccc(OCc2ccccc2)cc1` [Compound 9, 1-(2-(4-(benzyloxy)phenyl)-2-oxoethyl)piperidin-1-ium hydrochloride]: the Ki in data set [2] (setting [11]) was 48 ± 12 nM; in [2] (setting [12]) it was 48 nM.
Take `O=C(CCN1CCCCC1)c1ccc(OCc2ccccc2)cc1` [Compound 10, 1-(3-(4-(benzyloxy)phenyl)-3-oxopropyl)piperidin-1-ium hydrochloride]: the Ki is 25 ± 7 nM in data set [2] (setting [9]) and 25 nM in [2] (setting [10]).
With `O=C(CCCN1CCCCC1)c1ccc2ccccc2c1` [Compound 11, 1-(4-(naphthalen-2-yl)-4-oxobutyl)piperidin-1-ium hydrochloride], the Ki in [2] (setting [9]) is 4.4 ± 2.4 nM; in [2] (setting [10]), 4.4 nM; in data set [3] it was 50 nM.
As a reminder, the inhibition is the percentage by which the read-out fell short of the control. Lower therefore signals little suppression. As a reminder, the IC50 is the concentration that gives 50% inhibition. Read a low IC50 as higher potency. Take `O=C(CCCN1CCCCC1)c1ccc(-c2ccccc2)cc1` [Compound 12, 1-(4-([1,1’-biphenyl]-4-yl)-4-oxobutyl)piperidin-1-ium hydrochloride]: the Ki in [2] (setting [11]) was 33 ± 14 nM; in [2] (setting [12]), 33 nM; in data set [5], 200 nM. The “osmotic water permeability, percent of k relative” value in data set [4] (setting [13]) is reported as “able to prevent the water permeability reduction”; in data set [4] (setting [14]), “did not affect the water permeability”. For the same compound, the inhibition at 50 µM in data set [6] (50 μM) was determined as 72%. This compound also returned an IC50 in [6] (Ellman's method) of 680 ± 90 nM.
`O=C(CCCN1CCCCC1)c1ccc(OCc2ccccc2)cc1` [Compound 13, 1-(4-(4-(benzyloxy)phenyl)-4-oxobutyl)piperidin-1-ium hydrochloride]: the Ki in data set [2] (setting [9]) was 87 ± 28 nM; in data set [2] (setting [10]), 87 nM.
For `CCCN(CCC)CCc1ccc(OC)c(OCCc2ccccc2)c1` [NE-100], in [4] (setting [13]), the “osmotic water permeability, percent of k relative” value is on record as 78 % of k relative.
Regarding `CC(CCN1CCCCC1)c1ccc(-c2ccccc2)cc1` (stereo not shown) [RC-33, 1-[3-(1,1′-biphen)-4-yl]butylpiperidine], the Ki was 1.8 ± 0.1 nM in [7] and 45 ± 16 nM in data set [8]. The “osmotic water permeability, percent of k relative” value in [4] (setting [13]) is given as “able to prevent the water permeability reduction”; in data set [4] (setting [14]), “comparable”.
In the case of `COc1cc(/C=C/C(=O)CC(=O)/C=C/c2ccc(O)c(OC)c2)ccc1O` [curcumin], the “osmotic water permeability, percent of k relative” value was “not able to protect the AQPs’ permeability properties” in data set [4] (setting [13]) and 75 % of k relative in [4] (setting [14]).
